According to patent US20220016196A1, “Aloe Based Compositions Comprising Polysaccharides and Polyphenols for Regulation of Homeostasis of Immunity” (Unigen, Inc., priority 2020, published 2022):

Tested on: LPS-induced septic mice
Assay: LPS induced sepsis model, survival/mortality rate
Format: in vivo, mouse
Conditions: for # of Death after LPS: cumulative; for Number of deceased animals post LPS: per interval
Procedure: CD-1 mice were purchased from a USDA approved vendor. Male CD-1 mice at 8 weeks old were purchased form Charles River Laboratories, Inc. (Wilmington, Mass.). Animals were acclimated upon arrival and used for the study at the age of 11 weeks. At the time of the study animals average weigh 33.6±2.4 grams. They were housed in a temperature-controlled room (71-72° F.) on a 12-hour light-dark cycle and provided with feed and water ad libitum.
This model used a survival/mortality rate of animals as the end point measurement (Wang et al., 1999). LPS, an exogenous assault trigger, is an integral component of the outer membrane of gram-negative bacteria and a major contributing factor in the initiation of a generalized inflammatory process that could lead to endotoxic shock. It is a state mediated principally by macrophages/monocytes attributed to excessive production of several early phase cytokines such as TNF, IL-1, IL-6 and gamma interferon as well as a late stage mediator HMGB1. Following median lethal dose of LPS (25 mg/kg) administration dissolved in Phosphate buffered saline (PBS; Lifeline, Lot #07641), animals develop endotoxemia and HMGB1 would be detected in the serum at 8 hours and reach to a peak and plateau levels from 16 to 32 hours after LPS. If untreated, mice would start to die within 24 hours. In the current study, we monitored the mice for 4 days after LPS injection. The survival/mortality rate compared LPS +Sodium butyrate (SB; Aldrich, St. Louis, Mo.; lot #MKCG7272), LPS+Vehicle (0.5% CMC; Spectrum, New Brunswick, N.J.; lot #1IJ0127) and LPS+UP360 (Aloe based composition comprising polysaccharides and polyphenols made in Example 9). The following groups were included in the study:
In this model, mice were pretreated with UP360 illustrated in the Example 9 for a week (7 days) before lethal dose intraperitoneal injection of LPS (E. coli, 055:B5; Sigma, St. Louis, Mo.; Lot #081275) at 25 mg/kg with a 10 mL/kg PBS volume. Animals were observed hourly. Given the fact that Sodium butyrate improved LPS-induced injury in mice through suppression of HMGB1 release, we chose this compound as a positive control for our study (Li et al., 2018).
Male CD-1 mice (n=13) were treated with Aloe, Poria, and Rosmarinic acid (RA) utilized for making UP360 in Example 9 at 150 mg/kg, 300 mg/kg and 50 mg/kg, respectively, for 7 days before LPS injection. On the 8th day, mice were injected with 25 mg/kg LPS dissolved in PBS at 10 mL/kg intraperitoneally. Mice in the UP360-treated group received a daily dose of UP360 at 500 mg/kg. All mice continued to receive the respective treatment daily for the duration of the study. Following median lethal dose of LPS (25 mg/kg) i.p. administration, animals are expected to develop sepsis within a few hours. If untreated, mice would start to die within 24 hours. Animals were observed hourly. In the current study, we monitored the mice for 6 days after LPS injection. The survival rate compared LPS+Sodium butyrate (SB), LPS+Vehicle (0.5% CMC), LPS+UP360, LPS+Aloe, LPS+Poria and LPS+Rosmarinic acid. Normal control animals received only PBS intraperitoneally and gavaged only with the carrier vehicle 0.5% CMC. Given the fact that Sodium butyrate (SB) improved LPS-induced injury in mice through suppression of HMGB1 release, we chose this compound as a positive control for our study (Li et al., 2018).
The survival rate and mortality rate of the contemplated Aloe-based compositions, including UP360, comprising and, in some embodiments, consisting of polysaccharides and polyphenols was compared with those dosages of individual extracts as they appear in the formulation to find out potential additive, antagonist or synergistic effects in combination using Colby's equation (Colby, 1967). For the blending of these plant extracts to have unexpected synergy, the observed inhibition needs to be greater than the calculated value.

[1] = n=13 study, doses as E61, 24 hr
[2] = n=13 study, doses as E61, 36 hr
[3] = n=13 study, doses as E61, 48 hr
[4] = n=13 study, doses as E61, 60 hr
[5] = n=13 study, doses as E61, 72 hr
[6] = n=13 study, doses as E61, 96 hr
[7] = n=13 study, doses as E61, 120 hr
[8] = n=13 study, doses as E61, 144 hr

## CCCC(=O)[O-].[Na+] [Sodium Butyrate]
CD-1 mice n=8, LPS 25 mg/kg i.p., 500 mg/kg oral from 7 days before, 24 hr
  # of Death after LPS: 2
CD-1 mice n=13, LPS 25 mg/kg i.p., oral UP360/SB 500, Aloe 150, Poria 300, RA 50 mg/kg, 24 hpi
  Number of deceased animals post LPS: 2
Mortality rate, n=13 study, doses as E49, end of study
  MR (%): 69.2%
n=8, LPS 25 mg/kg i.p., 500 mg/kg oral
  # of Death after LPS, Total: 4
n=8, LPS 25 mg/kg i.p., 500 mg/kg oral, 24 hours after LPS
  survival rate: 75%
n=8, LPS 25 mg/kg i.p., 500 mg/kg oral, 34 hours after LPS
  survival rate: 62.5%
n=8, LPS 25 mg/kg i.p., 500 mg/kg oral, 48 hours after LPS
  survival rate: half of the animals were deceased
n=8, LPS 25 mg/kg i.p., 500 mg/kg oral, 72 hours after LPS
  survival rate: 50%
n=8, LPS 25 mg/kg i.p., 500 mg/kg oral, 32 hr
  # of Death after LPS: 3
n=8, LPS 25 mg/kg i.p., 500 mg/kg oral, 34 hr
  # of Death after LPS: 3
n=8, LPS 25 mg/kg i.p., 500 mg/kg oral, 48 hr
  # of Death after LPS: 4
n=8, LPS 25 mg/kg i.p., 500 mg/kg oral, 58 hr
  # of Death after LPS: 4
n=8, LPS 25 mg/kg i.p., 500 mg/kg oral, 72 hr
  # of Death after LPS: 4
n=8, LPS 25 mg/kg i.p., 500 mg/kg oral, 82 hr
  # of Death after LPS: 4
n=8, LPS 25 mg/kg i.p., 500 mg/kg oral, final (82 hours, same at 96 and 120 hours)
  Survival rate (%): 50%
n=13, LPS 25 mg/kg i.p., UP360/Sodium Butyrate 500, Aloe 150, Poria 300, RA 50 mg/kg, 0 hr
  Survival rate (%): 100%
n=13 study, doses as E49, at 144 hpi
  Survived: 4
n=13 study, doses as E49, 36 hpi
  Number of deceased animals post LPS: 4
n=13 study, doses as E49, 48 hpi
  Number of deceased animals post LPS: 1
n=13 study, doses as E49, 60 hpi
  Number of deceased animals post LPS: 1
n=13 study, doses as E49, 72 hpi
  Number of deceased animals post LPS: 0
n=13 study, doses as E49, 96 hpi
  Number of deceased animals post LPS: 1
n=13 study, doses as E49, 120 hpi
  Number of deceased animals post LPS: 0
n=13 study, doses as E49, 144 hpi
  Number of deceased animals post LPS: 0
n=13 study, doses as E49, total over 144 hpi
  Deceased: 9
n=13 study, doses as E61, 0 hr
  Mortality rate (%): 0.0%
[1]
  Mortality rate (%): 15.4%
  Survival rate (%): 84.6%
[2]
  Mortality rate (%): 46.2%
  Survival rate (%): 53.8%
[3]
  Mortality rate (%): 53.8%
  Survival rate (%): 46.2%
[4]
  Mortality rate (%): 61.5%
  Survival rate (%): 38.5%
[5]
  Mortality rate (%): 61.5%
  Survival rate (%): 38.5%
[6]
  Mortality rate (%): 69.2%
  Survival rate (%): 30.8%
[7]
  Mortality rate (%): 69.2%
  Survival rate (%): 30.8%
[8]
  Mortality rate (%): 69.2%
  Survival rate (%): 30.8%
Survival rate, n=13 study, doses as E49, end of study
  SR (%): 30.8%
